1 molecule from patent US7332612B2 (Teva Pharmaceutical Industries Ltd., priority 2001, dated 2008) can be followed below.

The text on the series: To obtain Form II in high chemical purity the starting material should also be chemically pure.

`CCCCc1nc(Cl)c(CO)n1Cc1ccc(-c2ccccc2-c2nnn[nH]2)cc1.[K]` [losartan potassium]: under “methanol, complete dissolution at room temperature”, the solubility in methanol entry is “highly soluble”. Moreover, the solubility in xylene entry (xylene, either crystalline or amorphous) was “low solubility”.
